Assays:
peripheral nerve medulla = settings: cited from earlier work
patient = experiment: Local anesthesia for clinical surgical operations: composition combined with a local anesthetic and injected locally; type: in vivo, human
Description: The above components are injected into 4 ml of 0.375% bupivacaine, and a 0.9% saline solution is added so that the total volume became 8 ml, and then, the composition is subcutaneously injected into both eyebrow regions.
The above components were injected into 30 ml of 1% prilocain hydrochloride according to the ratio, and 0.9% […] was added so that the total volume became 60 ml, and then, the composition was subcutaneously, intramuscularly and subperiosteally injected into the operation site of a patient using a 3 cm needle, and as the result, it was concluded that onset time of anesthesia is shortened to 60 seconds from 5 minutes of the existing case wherein only lidocaine was injected, and the duration of anesthetic action is prolonged from the existing 2 hours to 40 days. […].
The above components were injected into 20 ml of 0.5% procaine, and a 0.9% saline solution was added so that the total volume became 40 ml, and then, the composition was sequentially injected subcutaneously, intramusculary and intraperitoneally along the appendectomy scar of the patient using a 3 cm needle, and as the result, it was concluded that onset time of anesthetic is 60 seconds, and the duration of pain relief continues for 40 days. […]. […]

SMILES | concentration at which it may directly injure peripheral nerve medulla to cause irreparable nerve injury (peripheral nerve medulla) [%] | duration of anesthetic action / pain relief, existing (patient; existing case, without the composition of the example) [h] | onset time of anesthesia, existing case (patient; only the local anesthetic injected, without the composition) [min]
CN(C)c1ccc2nc3ccc(=[N+](C)C)cc-3sc2c1 [Methyleneblue] | > 0.03 | – | –
CCN(CC)CC(=O)Nc1c(C)cccc1C [lidocaine] | – | 2 | 5

Reference: patent US20190381061A1, “LOCAL ANESTHESIA PAIN-RELIEVING TIME-DELAY AGENT” (priority 2013, published 2019)
